Test [1] addresses T1, Follicle-stimulating hormone receptor (Homo sapiens, UniProt P23945).
T1 sequence (P23945 whole entry): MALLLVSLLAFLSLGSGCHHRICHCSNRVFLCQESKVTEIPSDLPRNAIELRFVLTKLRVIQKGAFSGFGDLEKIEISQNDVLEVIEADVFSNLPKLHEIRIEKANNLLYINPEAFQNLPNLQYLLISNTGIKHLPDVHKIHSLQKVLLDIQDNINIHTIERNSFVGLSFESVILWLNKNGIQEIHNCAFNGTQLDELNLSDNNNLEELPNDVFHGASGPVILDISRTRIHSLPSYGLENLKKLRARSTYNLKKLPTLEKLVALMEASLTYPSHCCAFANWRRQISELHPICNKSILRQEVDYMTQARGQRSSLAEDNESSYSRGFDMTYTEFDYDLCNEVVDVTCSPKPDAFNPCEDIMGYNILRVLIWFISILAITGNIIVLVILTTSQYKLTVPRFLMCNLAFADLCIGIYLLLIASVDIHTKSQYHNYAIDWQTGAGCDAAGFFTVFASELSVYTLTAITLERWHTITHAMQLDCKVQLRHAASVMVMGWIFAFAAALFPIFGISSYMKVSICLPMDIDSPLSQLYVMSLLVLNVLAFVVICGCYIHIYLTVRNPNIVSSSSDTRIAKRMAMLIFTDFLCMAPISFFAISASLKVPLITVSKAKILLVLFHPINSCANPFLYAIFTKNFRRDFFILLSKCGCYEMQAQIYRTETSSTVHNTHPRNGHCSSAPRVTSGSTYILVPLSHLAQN
Briefly: Positive allosteric modulation of FSHR (unknown origin) expressed in CHO cells assessed as FSH-induced cAMP accumulation incubated for 1 hr by HTRF assay. Format: functional, cell-based. In general terms: cAMP levels reflect the balance of adenylyl cyclase and phosphodiesterase activity.

Test [2] has as its target T1, Follicle-stimulating hormone receptor. Briefly: Positive allosteric modulation of human FSHR expressed in rat granulosa cells assessed as FSH-induced estradiol production after 72 hrs by radioimmunossay. Format: cell-based.

This passage reports EC50 results from ChEMBL document CHEMBL3808353, “Targeting the Follicle Stimulating Hormone Receptor (FSHR) To Treat Fertility Disorders” (ACS Med Chem Lett, 2016).

Broadly, the EC50 is the concentration giving half of the maximal effect.

For `Cc1ccccc1N1CCN(c2ccc(C(=O)NCCCN3CCCC3=O)cc2NC(=O)c2ccco2)CC1`, the EC50 is below 100 nM in test [1] and above 1000 nM in test [2].
As for `Cc1ccccc1N1CCN(c2ccc(C(=O)N[C@H]3CCC[C@H](O)C3)cc2NC(=O)c2coc(C3CC3)n2)CC1`, the EC50 in test [1] is below 100 nM.
For the compound `Cc1ccccc1N1CCN(c2ccc(C(=O)NCCCN3CCCC3=O)cc2NC(=O)c2ccc(F)cc2)CC1`, the EC50 in test [1] and in test [2] was 100 nM each time.
With `C=CCNC(=O)NCCCNC(=O)c1ccc(N2CCN(c3ccccc3C)CC2)c(NC(=O)c2ccco2)c1`, the EC50 in test [1] was below 100 nM.
`Cc1ccccc1N1CCN(c2ccc(C(=O)NCCCc3nn[nH]n3)cc2NC(=O)c2coc(C3CC3)n2)CC1`: the EC50 is below 100 nM in test [1] and 100 nM in test [2].
With `Cc1ccccc1N1CCN(c2ccc(C(=O)NCCCN3CCCC3=O)cc2NC(=O)c2coc(C3CC3)n2)CC1`, the EC50 in test [1] is below 100 nM; in test [2], 100 nM.
